pIC50: −log10 of the molar value. Activity calls are given as the source filed them. The calls are words filed in the database; no cut-off is given here.
Key:
Assay type in all cases: functional, cell-based
BGC-823 = assay: Cytotoxicity against human BGC823 cells by MTT assay
K562 [1] = assay: Cytotoxicity against human K562 cells by MTT assay
HepG2 = assay: Cytotoxicity against human HepG2 cells by MTT assay
K562 [2] = assay: Cytotoxicity against human adriamycin resistant K562 cells by MTT assay

Structure (SMILES) | Activity (BGC-823) | Activity (K562 [1]) | Activity (HepG2) | Activity (K562 [2]) | pIC50 (K562 [1])
CC1=CC(=O)C2=C(COC(=O)CC(C)C)C[C@H](OS(=O)(=O)O)[C@@H]3[C@H](OC(=O)[C@H]3C)[C@@H]12 | inactive | inactive | inactive | inactive | –
CC1=CC(=O)C2=C(COC(=O)CC(C)C)C[C@H](O)[C@@H]3[C@H](OC(=O)[C@H]3C)[C@@H]12 | inactive | inactive | inactive | inactive | –
C=C1[C@@H]2[C@H]3OC(=O)[C@@H](CNCC4CCC(=O)O4)[C@@H]3CCC(=C)[C@@H]2C[C@@H]1O[C@@H]1O[C@H](CO)[C@@H](O)[C@H](O)[C@H]1O (stereo partly specified) | inactive | inactive | inactive | inactive | –
C=C1[C@@H]2[C@H]3OC(=O)[C@@H](CNCC4CCC(=O)O4)[C@@H]3CCC(=C)[C@@H]2C[C@@H]1O (stereo partly specified) [SCORZOAUSTRIACIN] | inactive | – | inactive | inactive | 4.95

— ChEMBL document CHEMBL1154982, “Sesquiterpene lactones from Scorzonera austriaca” (J Nat Prod, 2010)
